Columns and labels:
Assay in all cases: Post-emergence efficacy, glasshouse
Assay type in all cases: in vivo
[1] = system: Digitaria sanguinalis (DIGSA); conditions: evaluated after 13 days, 100=total damage to plant, 0=no damage to plant; for pest or weed control at 500 g/ha / pest or weed control at 1000 g/ha: Digitaria sanguinalis, post-emergence, 312 h, read-out: Control of weed species after post-emergence application, DIGSA; for pest or weed control at 500 g/ha: Application Rate 500 g/Ha
Procedure, shortened: (§1)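 Plants grown 14 days in standard soil in pots in the glasshouse (24/16° C. day/night, 14 h light, 65% humidity) were sprayed with test compound diluted in 0.25% or 1% Empicol ESC70 plus 1% ammonium sulphate in water. Damage was scored 13 days later (0 = none, 100 = total).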

[2] = system: Lolium perenne (LOLPE); conditions: evaluated after 13 days, 100=total damage to plant, 0=no damage to plant; for pest or weed control at 500 g/ha / pest or weed control at 1000 g/ha: Lolium perenne, post-emergence, 312 h, read-out: Control of weed species after post-emergence application, LOLPE; for pest or weed control at 500 g/ha: Application Rate 500 g/Ha
Procedure, shortened: as §1

[3] = system: Echinochloa crus-galli (ECHCG); conditions: evaluated after 13 days, 100=total damage to plant, 0=no damage to plant; for pest or weed control at 500 g/ha / pest or weed control at 1000 g/ha: Echinochloa crus-galli, post-emergence, 312 h, read-out: Control of weed species after post-emergence application, ECHCG; for pest or weed control at 500 g/ha: Application Rate 500 g/Ha
Procedure, shortened: as §1

[4] = system: Euphorbia heterophylla (EPHHL); conditions: evaluated after 13 days, 100=total damage to plant, 0=no damage to plant; for pest or weed control at 500 g/ha / pest or weed control at 1000 g/ha: Euphorbia heterophylla, post-emergence, 312 h, read-out: Control of weed species after post-emergence application, EPHHL; for pest or weed control at 500 g/ha: Application Rate 500 g/Ha
Procedure, shortened: as §1

[5] = system: Amaranthus palmeri (AMAPA); conditions: evaluated after 13 days, 100=total damage to plant, 0=no damage to plant; for pest or weed control at 500 g/ha / pest or weed control at 1000 g/ha: Amaranthus palmeri, post-emergence, 312 h, read-out: Control of weed species after post-emergence application, AMAPA; for pest or weed control at 500 g/ha: Application Rate 500 g/Ha
Procedure, shortened: as §1

[6] = system: Ipomoea hederacea (IPOHE); conditions: evaluated after 13 days, 100=total damage to plant, 0=no damage to plant; for pest or weed control at 500 g/ha / pest or weed control at 1000 g/ha: Ipomoea hederacea, post-emergence, 312 h, read-out: Control of weed species after post-emergence application, IPOHE; for pest or weed control at 500 g/ha: Application Rate 500 g/Ha
Procedure, shortened: as §1

[7] = system: Chenopodium album (CHEAL); conditions: evaluated after 13 days, 100=total damage to plant, 0=no damage to plant; for pest or weed control at 500 g/ha / pest or weed control at 1000 g/ha: Chenopodium album, post-emergence, 312 h, read-out: Control of weed species after post-emergence application, CHEAL; for pest or weed control at 500 g/ha: Application Rate 500 g/Ha
Procedure, shortened: as §1

[8] = system: Eleusine indica (ELEIN); conditions: evaluated after 13 days, 100=total damage to plant, 0=no damage to plant; for pest or weed control at 500 g/ha / pest or weed control at 1000 g/ha: Eleusine indica, post-emergence, 312 h, read-out: Control of weed species after post-emergence application, ELEIN; for pest or weed control at 500 g/ha: Application Rate 500 g/Ha
Procedure, shortened: as §1

[9] = system: Setaria faberi (SETFA); conditions: evaluated after 13 days, 100=total damage to plant, 0=no damage to plant; for pest or weed control at 500 g/ha / pest or weed control at 1000 g/ha: Setaria faberi, post-emergence, 312 h, read-out: Control of weed species after post-emergence application, SETFA; for pest or weed control at 500 g/ha: Application Rate 500 g/Ha
Procedure, shortened: as §1

| SMILES | pest or weed control at 1000 g/ha ([1]; Application Rate 1000 g/Ha) [%] | pest or weed control at 1000 g/ha ([2]; Application Rate 1000 g/Ha) [%] | pest or weed control at 1000 g/ha ([3]; Application Rate 1000 g/Ha) [%] | pest or weed control at 1000 g/ha ([4]; Application Rate 1000 g/Ha) [%] | pest or weed control at 1000 g/ha ([5]; Application Rate 1000 g/Ha) [%] | pest or weed control at 1000 g/ha ([6]; Application Rate 1000 g/Ha) [%] | pest or weed control at 1000 g/ha ([7]; Application Rate 1000 g/Ha) [%] | pest or weed control at 1000 g/ha ([8]; Application Rate 1000 g/Ha) [%] | pest or weed control at 1000 g/ha ([9]; Application Rate 1000 g/Ha) [%] | further results |
| --- | --- | --- | --- | --- | --- | --- | --- | --- | --- | --- |
| CCOP(=O)(O)CCc1c[n+](C)nc2ccccc12 [Compound A54, ethoxy-[2-(2-methylcinnolin-2-ium-4-yl)ethyl]phosphinic acid 2,2,2-trifluoroacetate] |  |  |  |  |  |  |  |  |  | pest or weed control at 500 g/ha [1]: 40%; pest or weed control at 500 g/ha [2]: 20%; pest or weed control at 500 g/ha [3]: 30%; pest or weed control at 500 g/ha [4]: 80%; pest or weed control at 500 g/ha [5]: 30%; pest or weed control at 500 g/ha [6]: 20%; pest or weed control at 500 g/ha [7]: 20%; pest or weed control at 500 g/ha [8]: 30%; pest or weed control at 500 g/ha [9]: 30% |
| CNS(=O)(=O)[N-]C(=O)c1c[n+](C)nc2ccccc12 [Compound A10, 2-methyl-N-(methylsulfamoyl)cinnolin-2-ium-4-carboxamide] | 70 | 30 | 50 | 70 | 80 | 30 | 70 | 60 | 50 |  |
| C[n+]1cc(S(=O)(=O)[O-])c2ccccc2n1 [Compound A6, 2-methylcinnolin-2-ium-4-sulfonate] | 10 | 10 | 10 | 60 | 10 | 0 | 60 | 10 | 10 |  |
| C[n+]1cc(C(=O)O)c2ccccc2n1 [Compound A29] | 30 | 40 | 40 | 80 | 90 | 80 | 90 | 20 | 50 |  |
| C[n+]1cc(C(=O)[N-]S(C)(=O)=O)c2ccccc2n1 [Compound A5, (2-methylcinnolin-2-ium-4-carbonyl)-methylsulfonyl-azanide] | 90 | 50 | 50 | 90 | 100 | 90 | 90 | 90 | 70 |  |
| CC(C)OP(=O)([O-])c1c[n+](C(C)C)nc2ccccc12 [Compound A76, isopropoxy-(2-isopropylcinnolin-2-ium-4-yl)phosphinate] |  |  |  |  |  |  |  |  |  | pest or weed control at 500 g/ha [1]: 80%; pest or weed control at 500 g/ha [2]: 50%; pest or weed control at 500 g/ha [3]: 70%; pest or weed control at 500 g/ha [4]: 100%; pest or weed control at 500 g/ha [5]: 100%; pest or weed control at 500 g/ha [6]: 90%; pest or weed control at 500 g/ha [7]: 90%; pest or weed control at 500 g/ha [8]: 100%; pest or weed control at 500 g/ha [9]: 80% |
| C[n+]1cc(OCC(=O)O)c2ccccc2n1 [Compound A58] | 70 | 0 | 10 | 20 | 80 | 20 | 70 | 30 | 60 |  |
| C[n+]1cc(CP(=O)([O-])O)c2ccccc2n1 [Compound A50, (2-methylcinnolin-2-ium-4-yl)methylphosphonic acid] | 20 | 0 | 20 | 20 | 60 | 20 | 30 | 30 | 10 |  |
| C[n+]1cc(P(C)(=O)O)c2ccccc2n1 [Compound A31] | 100 | 70 | 60 | 100 | 100 | 90 | 80 | 100 | 90 |  |
| COP(=O)([O-])c1c[n+](CCO)nc2ccccc12 [Compound A68, [2-(2-hydroxyethyl)cinnolin-2-ium-4-yl]-methoxy-phosphinate] | 100 | 40 | 60 | 100 | 100 | 100 | 100 | 100 | 90 |  |
| COC(=O)CCS(=O)(=O)[N-]C(=O)c1c[n+](C)nc2ccccc12 [Compound A42] | 60 | 10 | 20 | 60 | 70 | 40 | 60 | 80 | 40 |  |
| CCOP(=O)(Cc1c[n+](C)nc2ccccc12)OCC.[I-] [Compound A47, 4-(diethoxyphosphorylmethyl)-2-methyl-cinnolin-2-ium iodide] |  |  |  |  |  |  |  |  |  | Control of weed species after post-emergence application, DIGSA ([1]; Application Rate 1000 g/Ha): 40; Control of weed species after post-emergence application, LOLPE ([2]; Application Rate 1000 g/Ha): 10; Control of weed species after post-emergence application, ECHCG ([3]; Application Rate 1000 g/Ha): 30; Control of weed species after post-emergence application, EPHHL ([4]; Application Rate 1000 g/Ha): 30; Control of weed species after post-emergence application, AMAPA ([5]; Application Rate 1000 g/Ha): 60; Control of weed species after post-emergence application, IPOHE ([6]; Application Rate 1000 g/Ha): 20; Control of weed species after post-emergence application, CHEAL ([7]; Application Rate 1000 g/Ha): 70; Control of weed species after post-emergence application, ELEIN ([8]; Application Rate 1000 g/Ha): 50; Control of weed species after post-emergence application, SETFA ([9]; Application Rate 1000 g/Ha): 40 |
| C[n+]1cc(C(=O)[N-]S(=O)(=O)C(C)(C)C)c2ccccc2n1 [Compound A36] | 10 | 0 | 10 | 20 | 40 | 30 | 30 | 30 | 30 |  |
| CC[n+]1cc(P(=O)([O-])OC)c2ccccc2n1 [Compound A65] | 90 | 40 | 50 | 100 | 90 | 70 | 90 | 80 | 80 |  |

From patent US20220132847A1, “CINNOLINIUM COMPOUNDS FOR USE IN A METHOD OF CONTROLLING UNWANTED PLANT GROWTH” (SYNGENTA CROP PROTECTION AG, priority 2019, published 2022)
